# Experimental data published in ChEMBL document CHEMBL3046912, “Effectiveness of 1,3-dichloropropene as an alternative to methyl bromide in rotations of tomato (Solanum lycopersicum) and cucumber (Cucumis sativus) in China” (2012).
# Calls of active or inactive are those of the source. The rule behind the calls is not given here.
# Legend:
# [1] = system: Cucumis sativus; test: Increase in plant height of Cucumis sativus (cucumber) exposed to 120 L/ha compound fumigation treatment measured 30 days after compound treatment (reference value: 85.6 cm); type: functional
# [2] = system: Cucumis sativus; test: Increase in plant height of Cucumis sativus (cucumber) exposed to 90 L/ha compound fumigation treatment measured 30 days after compound treatment (reference value: 85.6 cm); type: functional
# [3] = system: Cucumis sativus; test: Increase in plant height of Cucumis sativus (cucumber) exposed to 180 L/ha compound fumigation treatment measured 50 days after compound treatment (reference value: 103.2 cm); type: functional
# [4] = system: Cucumis sativus; test: Increase in plant height of Cucumis sativus (cucumber) exposed to 120 L/ha compound fumigation treatment measured 50 days after compound treatment (reference value: 103.2 cm); type: functional
# [5] = system: Cucumis sativus; test: Increase in plant height of Cucumis sativus (cucumber) exposed to 90 L/ha compound fumigation treatment measured 50 days after compound treatment (reference value: 103.2 cm); type: functional
# [6] = system: Digitaria sanguinalis; test: Herbicidal activity against Digitaria sanguinalis (hairy crabgrass) in cucumber plants fields exposed to 90 L/ha compound fumigation treatment assessed as hand weeding time per plot (reference value: 258.3 hr/ha); type: functional
# [7] = system: Capsella bursa-pastoris; test: Herbicidal activity against Capsella bursa-pastoris in cucumber plants fields exposed to 90 L/ha compound fumigation treatment assessed as hand weeding time per plot (reference value: 258.3 hr/ha); type: functional
# [8] = system: Digitaria sanguinalis; test: Herbicidal activity against Digitaria sanguinalis (hairy crabgrass) in cucumber plants fields exposed to 120 L/ha compound fumigation treatment assessed as hand weeding time per plot (reference value: 258.3 hr/ha); type: functional
# [9] = system: Capsella bursa-pastoris; test: Herbicidal activity against Capsella bursa-pastoris in cucumber plants fields exposed to 120 L/ha compound fumigation treatment assessed as hand weeding time per plot (reference value: 258.3 hr/ha); type: functional
# [10] = system: Arenaria serpyllifolia; test: Herbicidal activity against Arenaria serpyllifolia in cucumber plants fields exposed to 180 L/ha compound fumigation treatment assessed as hand weeding time per plot (reference value: 258.3 hr/ha); type: functional
# [11] = system: Botrytis cinerea; test: Fungicidal activity against Botryotinia fuckeliana-induced withering in tomato plants at 120 to 180 L/ha measured 20 to 60 days post compound treatment; type: functional, organism-based
# [12] = system: Meloidogyne incognita; test: Nematicidal activity against Meloidogyne incognita (root-knot nematode) in cucumber growing fields exposed to 120 L/ha compound fumigation treatment assessed as root galling index measured 20 days after compound treatment (reference value: 8.72 root galling index); type: functional
# [13] = system: Solanum lycopersicum; test: Increase in crop yield in Cucumis sativus (cucumber) plants exposed to 180 L/ha compound fumigation treatment assessed as marketable yield fruit yield (reference value: 65.3 ton/ha); type: functional
# [14] = system: Solanum lycopersicum; test: Increase in crop yield in Solanum lycopersicum (tomato) plants exposed to 90 L/ha compound fumigation treatment assessed as marketable yield fruit yield (reference value: 51.3 ton/ha); type: functional
# [15] = system: Solanum lycopersicum; test: Increase in crop yield in Solanum lycopersicum (tomato) plants exposed to 180 L/ha compound fumigation treatment assessed as marketable yield fruit yield (reference value: 51.3 ton/ha); type: functional
# [16] = system: Capsella bursa-pastoris; test: Herbicidal activity against Capsella bursa-pastoris in tomato plants fields exposed to 180 L/ha compound fumigation treatment assessed as hand weeding time per plot (reference value: 243.3 hr/ha); type: functional
# [17] = system: Phytophthora melonis; test: Fungicidal activity against Phytophthora melonis-induced blight disease in cucumber plants at 120 to 180 L/ha measured 20 to 60 days post compound treatment; type: functional, organism-based
# [18] = system: Meloidogyne incognita; test: Nematicidal activity against Meloidogyne incognita (root-knot nematode) in tomato growing fields exposed to 90 L/ha compound fumigation treatment assessed as root galling index measured 20 days after compound treatment (reference value: 8.51 root galling index); type: functional
# [19] = system: Meloidogyne incognita; test: Nematicidal activity against Meloidogyne incognita (root-knot nematode) in tomato growing fields exposed to 120 L/ha compound fumigation treatment assessed as root galling index measured 20 days after compound treatment (reference value: 8.51 root galling index); type: functional
# [20] = system: Meloidogyne incognita; test: Nematicidal activity against Meloidogyne incognita (root-knot nematode) in tomato growing fields exposed to 180 L/ha compound fumigation treatment assessed as root galling index measured 20 days after compound treatment (reference value: 8.51 root galling index); type: functional
# [21] = system: Solanum lycopersicum; test: Increase in crop yield in Cucumis sativus (cucumber) plants exposed to 90 L/ha compound fumigation treatment assessed as medium fruit yield (reference value: 38.6 ton/ha); type: functional
# [22] = system: Solanum lycopersicum; test: Increase in crop yield in Cucumis sativus (cucumber) plants exposed to 120 L/ha compound fumigation treatment assessed as medium fruit yield (reference value: 38.6 ton/ha); type: functional
# [23] = system: Capsella bursa-pastoris; test: Herbicidal activity against Capsella bursa-pastoris in cucumber plants fields exposed to 180 L/ha compound fumigation treatment assessed as hand weeding time per plot relative to untreated control; type: functional
# [24] = system: Arenaria serpyllifolia; test: Herbicidal activity against Arenaria serpyllifolia in tomato plants fields exposed to 120 L/ha compound fumigation treatment assessed as hand weeding time per plot relative to untreated control; type: functional
# [25] = system: Capsella bursa-pastoris; test: Herbicidal activity against Capsella bursa-pastoris in tomato plants fields exposed to 120 L/ha compound fumigation treatment assessed as hand weeding time per plot relative to untreated control; type: functional
# [26] = system: Digitaria sanguinalis; test: Herbicidal activity against Digitaria sanguinalis (hairy crabgrass) in tomato plants fields exposed to 180 L/ha compound fumigation treatment assessed as hand weeding time per plot relative to untreated control; type: functional
# [27] = system: Solanum lycopersicum; test: Increase in crop yield in Cucumis sativus (cucumber) plants exposed to 180 L/ha compound fumigation treatment assessed as medium fruit yield (reference value: 38.6 ton/ha); type: functional
# [28] = system: Solanum lycopersicum; test: Increase in crop yield in Cucumis sativus (cucumber) plants exposed to 180 L/ha compound fumigation treatment assessed as large fruit yield (reference value: 19.5 ton/ha); type: functional
# [29] = system: Capsella bursa-pastoris; test: Herbicidal activity against Capsella bursa-pastoris in cucumber plants fields exposed to 120 L/ha compound fumigation treatment assessed as hand weeding time per plot relative to untreated control; type: functional
# [30] = system: Solanum lycopersicum; test: Increase in crop yield in Solanum lycopersicum (tomato) plants exposed to 120 L/ha compound fumigation treatment assessed as large fruit yield (reference value: 15.2 ton/ha); type: functional
# [31] = system: Solanum lycopersicum; test: Increase in crop yield in Solanum lycopersicum (tomato) plants exposed to 180 L/ha compound fumigation treatment assessed as large fruit yield (reference value: 15.2 ton/ha); type: functional
# [32] = system: Solanum lycopersicum; test: Increase in crop yield in Cucumis sativus (cucumber) plants exposed to 180 L/ha compound fumigation treatment assessed as extra-large fruit yield (reference value: 7.2 ton/ha); type: functional
# [33] = system: Solanum lycopersicum; test: Increase in crop yield in Cucumis sativus (cucumber) plants exposed to 120 L/ha compound fumigation treatment assessed as extra-large fruit yield (reference value: 7.2 ton/ha); type: functional
# [34] = system: Digitaria sanguinalis; test: Herbicidal activity against Digitaria sanguinalis (hairy crabgrass) in cucumber plants fields exposed to 90 L/ha compound fumigation treatment assessed as hand weeding time per plot relative to untreated control; type: functional
# [35] = system: Arenaria serpyllifolia; test: Herbicidal activity against Arenaria serpyllifolia in cucumber plants fields exposed to 120 L/ha compound fumigation treatment assessed as hand weeding time per plot relative to untreated control; type: functional
# [36] = system: Capsella bursa-pastoris; test: Herbicidal activity against Capsella bursa-pastoris in cucumber plants fields exposed to 90 L/ha compound fumigation treatment assessed as hand weeding time per plot relative to untreated control; type: functional
# [37] = system: Digitaria sanguinalis; test: Herbicidal activity against Digitaria sanguinalis (hairy crabgrass) in cucumber plants fields exposed to 120 L/ha compound fumigation treatment assessed as hand weeding time per plot relative to untreated control; type: functional
smiles,measurement,setting,value
"Cl/C=C/CCl [1,3-DICHLOROPROPENE]",Activity,[1],96.8 cm
same,Activity,[2],92.6 cm
same,Activity,[3],130.7 cm
same,Activity,[4],120.5 cm
same,Activity,[5],112.3 cm
same,Time,[6],90.5 hr/ha
same,Time,[7],90.5 hr/ha
same,Time,[8],74.4 hr/ha
same,Time,[9],74.4 hr/ha
same,Time,[10],62.3 hr/ha
same,Activity,[11],Active
same,Root_galling_index,[12],2.92
same,Crop_yield,[13],98.8 tons/ha
same,Crop_yield,[14],62.4 tons/ha
same,Crop_yield,[15],76.3 tons/ha
same,Time,[16],55.6 hr/ha
same,Activity,[17],Active
same,Root_galling_index,[18],3.28
same,Root_galling_index,[19],2.84
same,Root_galling_index,[20],2.34
same,Crop_yield,[21],47.7 tons/ha
same,Crop_yield,[22],49.1 tons/ha
same,Activity,[23],45%
same,Activity,[24],45%
same,Activity,[25],45%
same,Activity,[26],45%
same,Crop_yield,[27],52.3 tons/ha
same,Crop_yield,[28],31.7 tons/ha
same,Activity,[29],45%
same,Crop_yield,[30],19.2 tons/ha
same,Crop_yield,[31],22.6 tons/ha
same,Crop_yield,[32],14.8 tons/ha
same,Crop_yield,[33],12.1 tons/ha
same,Activity,[34],45%
same,Activity,[35],45%
same,Activity,[36],45%
same,Activity,[37],45%
